# From patent publication US20240174716A1, “TRANSPORTER PEPTIDES AND APPLICATION THEREOF” (Vacino Biotech Co. Ltd, priority 2022, published 2024)
# Several values for one entry are separate records, joined by “and”; a condition that tells them apart may be missing. Equal entries are not always repeated. Where two headings read alike, the source gives them in different places. Peptide text beside a SMILES is read from it.
# What was measured:
# [1] = In vivo imaging system (IVIS) analysis of fluorescent dye-conjugated transporter peptides; parameters: species or system BALB/c mice; settings: for quantified fluorescence signal in mouse brain: after 0.5 hour of the injection; for half-life: BALB/c, mouse, brain, intravenous, read-out: half-life of the fluorescence in the mouse brains (converted)
# Description: In this Example, the transporter peptide disclosed herein was administered to mice, and the distribution of the transporter peptide in the mice was detected with an in vivo fluorescence imaging system (IVIS).
# One (1) mg of each transporter peptides PT-001 (SEQ ID NO: 2), PT-025 (SEQ ID NO: 11), PT-034 (SEQ ID NO: 19), and PT-031 (SEQ ID NO: 17) was dissolved in 1 mL of buffer containing 50 mM sodium bicarbonate/bicarbonate to a final concentration of 1 mg/mL. […] of 10 mg/mL fluorescent dye (VivoTag 680 XL, PerkinElmer, USA) was added to the 1 mL transporter peptide solution, and the mixture was incubated at room temperature in the dark for 1 hour. The dye-labeled product was filtered with a 3 KDa centrifugal filter device (Amicon Ultra-0.5 Centrifugal filter devices, Millipore, USA) and centrifuged at 14,000×g for 15 minutes. The fluorescent dye-conjugated transporter peptide was diluted with 1×PBS to a final volume of 0.2 mL.
# BALB/c mice (BioLASCO Taiwan Co., Ltd, Taipei, Taiwan) at the age of 7-8 weeks were divided into a control group (n=1) and a test group (n=3). The mouse in the control group was administered 50 μL of fluorescent dye via tail vein injection. Mice in the group were administered 50 μL of the transporter peptide conjugated with fluorescent dye obtained above via tail vein injection. Mice were photographed using an optical imaging system (U-OI, MlLabs, Netherlands) at 0.5, 1, 2, 4, 6 and 24 hours after the injection for IVIS imaging analysis, with the excitation wavelength of 631 nm, the emission wavelength of 710 nm, and 10-second exposure time. Fluorescence signals of mouse brains were further quantified.
# Caco-2 cell monolayer = settings: PT-034 on top of monolayer, 37° C.
# Description: In this example, the transport efficiency of the transporter peptide disclosed herein to the Caco-2 cell monolayer was tested to analyze the penetration effect of the transporter peptide on the tissue barrier, and to analyze the ability of the transporter peptide to induce transcytosis of the cell.
# Caco-2 cells were plated at 2×10^4 cells/cm^2 on 24-transwell inserts (BD Falcon, 353495) in DMEM medium with 10% FBS and cultured for 21 days to form a monolayer. Monolayers were then confirmed by transepithelial electrical resistance (TEER), and the monolayers which have at least 500-600 Ω cm^2 of TEER were qualified monolayers for the following transcytosis experiment.
# HPLC was conducted by using a Water ACQUITY Arc system. The chromatographic separation was performed on a C18 column (Waters XSelect HSS T3 […], 4.6 mm×250 mm). Column temperature was maintained and operated at 40° C. The mobile phase consisted of A-0.1% trifluoroacetic acid in water and B-100% methanol. Separation was performed according to the following gradient program: 0 min-10% B, 6 min-30% B, 12 min-50% B, 18 min-90% B, 23 min-10% B. The flow rate of the mobile phase was at 1 mL/min, the injection volume of the sample was 20 μL, and the total run time was within 30 mins.
# The caco-2 monolayers with TEER at 680 Ω cm^2 were equilibrated in DMEM medium (serum free). […] of PT-034 (SEQ ID NO: 19) was applied to the top of Caco-2 monolayers at 37° C. Samples of both upper and lower solution were collected at 0, 0.25, 0.5, 1, 2, 6 hours. Peptides were purified from the sample solution by solid phase extraction (SPE) using C-18 tips (Cat. no. 87784, Pierce, Waltham, Massachusetts, USA). Each sample was supplemented with a final concentration of 11.43 μM PT-034 as internal control. 300 μL sample was absorbed by the C18 tip and eluted by 100 μL methanol. The sample was then subjected to HPLC analysis. The HPLC peak area was calculated at retention time of 16.9 minutes, and a standard curve was plotted for calculating the contents of the transporter peptide in the sample solutions.
# [2] = 10 mg/kg tail vein injection
# Description: Brain tissue was collected one hour after the injection and triturated in 1.3 mL of 50 mM sodium bicarbonate/bicarbonate buffer. The brain tissue grinding fluid was centrifuged at 3000 rpm for 5 minutes, the supernatant was taken and further centrifuged at 14000 rpm for 15 minutes. Zero-point-four (0.4) mL of ice-cold methanol was added to 0.1 mL of the brain tissue grinding supernatant. The mixture was shook for 10 minutes, and then centrifuge at 14,000 rpm for 15 minutes. The brain tissue supernatant was then subjected to HPLC analysis whose method is as described in Example 2. The HPLC peak area was calculated at the retention time of 16.9 minutes, and a standard curve was plotted to calculate the content of the transporter peptide in each sample.
# [3] = 1 mg/kg dye-conjugated peptide, tail vein injection, 0.5, 1, 2, 4 and 6 hours after injection
Compound,"distribution of fluorescent signal in mice (IVIS) [1, 3]","quantified fluorescence signal in mouse brain ([1]; 1 mg/kg, tail vein injection)","half-life ([1]; 1 mg/kg, tail vein injection)",transporter peptide penetrated the Caco-2 cell monolayer (Caco-2 cell monolayer; 0.25 hours),transporter peptide penetrated the Caco-2 cell monolayer (Caco-2 cell monolayer; 1 hour),transporter peptide penetrated the Caco-2 cell monolayer (Caco-2 cell monolayer; 2 hours),transporter peptide penetrated the Caco-2 cell monolayer (Caco-2 cell monolayer; 6 hours),"distribution of fluorescent signal in mice (IVIS) ([1]; 10 mg/kg dye-conjugated peptide, tail vein injection, 1, 2, 4 and 6 hours after injection)","quantified fluorescence signal in mouse brain compared with control group (Dye) ([1]; 10 mg/kg, tail vein injection, after 1 hour of the injection)","half-life ([1]; 10 mg/kg, tail vein injection)","Content of the transporter peptid in the brain tissue ([2]; brain collected one hour after injection, individual mouse)","Injection dose/brain tissue weight ([2]; one hour after injection, individual mouse)","average transport efficiency to the brain ([2]; one hour after injection, mean of 2 mice)"
"CC[C@H](C)[C@H](NC(=O)[C@@H](N)CC(=O)O)C(=O)N[C@@H](CO)C(=O)N[C@H](C(=O)N[C@@H](CC(C)C)C(=O)N[C@@H](CCSC)C(=O)N[C@@H](CCCCN)C(=O)N[C@@H](CCC(=O)O)C(=O)N[C@@H](Cc1ccc(O)cc1)C(=O)N[C@@H](CC(=O)O)C(=O)O)C(C)C [PT-001, DISVLMKEYD] (H-DISVLMKEYD-OH)",enriched in the brain and spine,high levels of fluorescent signals,~5 h,,,,,,,,,,
"CC[C@H](C)[C@H](NC(=O)[C@@H](N)CC(=O)O)C(=O)N[C@@H](CO)C(=O)N[C@H](C(=O)N[C@@H](CC(C)C)C(=O)N[C@@H](CC(=O)O)C(=O)N[C@@H](CCCCN)C(=O)N[C@@H](CCC(=O)O)C(=O)N[C@@H](Cc1ccc(O)cc1)C(=O)N[C@@H](CC(=O)O)C(=O)O)C(C)C [PT-025, DISVLDKEYD] (H-DISVLDKEYD-OH; N-terminus and C-terminus assumed)",enriched in the brain and spine,high levels of fluorescent signals,~5 h,,,,,,,,,,
"CC[C@H](C)[C@H](NC(=O)[C@@H](N)CC(=O)O)C(=O)N[C@@H](CO)C(=O)N[C@H](C(=O)N[C@@H](CC(C)C)C(=O)N[C@@H](CCSC)C(=O)N[C@@H](CCCCN)C(=O)N[C@@H](CCC(=O)O)C(=O)N[C@@H](Cc1ccc(O)cc1)C(=O)N[C@@H](CC(N)=O)C(=O)O)C(C)C [PT-031, DISVLMKEYN] (H-DISVLMKEYN-OH)",enriched in the brain and spine,high levels of fluorescent signals,~5 h,,,,,,,,,,
"CC[C@H](C)[C@H](NC(=O)[C@@H](N)CC(=O)O)C(=O)N[C@@H](CO)C(=O)N[C@H](C(=O)N[C@@H](CC(C)C)C(=O)N[C@@H](CCSC)C(=O)N[C@@H](CCCCN)C(=O)N[C@@H](CCC(=O)O)C(=O)N[C@@H](Cc1ccc(O)cc1)C(=O)N[C@@H](CCC(N)=O)C(=O)O)C(C)C [PT-034, DISVLMKEYQ]",,,,about 8%,~40%,~42%,~56%,enriched in the brain and spine,high level of fluorescent signal,~5 h,25.9 µg and 25.5 µg,23.48% ID/g of brain and 22.09% ID/g of brain,22.79 % ID/g of brain
